Laboratory results taken from patent US12521375B2, “Pharmaceutical composition for treating fatty liver disease” (Shionogi & Co., Ltd., priority 2020, dated 2026).

How the values were obtained:
[1] = Metabolic stability test (human); format: in vitro ADME; conditions: human liver microsomes, 37° C., 30 minutes, NADPH
Experimental: (§1) Commercially available pooled human liver microsomes were reacted with the compound of the present invention for a given time. A residual rate was calculated by comparison between the reacted sample and the unreacted sample to evaluate a degree at which the compound of the present invention is metabolized in the liver.
(§2) The compound was reacted at 37° C. for 0 minutes or 30 minutes in the presence of 1 mmol/L NADPH in 0.2 mL of a buffer (50 mmol/L Tris-HCl pH 7.4, 150 mmol/L potassium chloride, and 10 mmol/L magnesium chloride) containing 0.5 mg protein/mL of the human liver microsomes (oxidative reaction). After the reaction, 50 μL of the reaction solution was added to 100 μL of a solution of methanol/acetonitrile=1/1 (v/v) and mixed, and the mixture was centrifuged at 3000 rpm for 15 minutes. The compound of the present invention in the centrifuged supernatant was quantified by LC/MS/MS or solid-phase extraction (SPE)/MS. The amount of the compound of the present invention remained after the reaction was calculated with the amount of the compound at 0 minutes of the reaction defined as 100%.

[2] = Metabolic stability test (rat); format: in vitro ADME
Experimental: [Worded in the source for another species; this species is reported under the same test.] as §1, §2

Tissue distribution test = format: in vivo, Crl:CD (SD) rats; conditions: rats, intravenous 0.5 mg/kg, 30 minutes after administration
Experimental: To 8-week-old male Crl:CD (SD) rats, the compound of the present invention was intravenously administered at a dose of 0.5 mg/mL/kg under non-fasted conditions, and 30 minutes after administration, the rats were killed by exsanguination through whole blood collection from the abdominal aorta under anesthesia. Then, the liver and muscles were removed, and a 25% homogenate was prepared with distilled water. The obtained blood was centrifuged, and plasma was then obtained. Then, control plasma and control tissue homogenate were added to the tissue homogenate sample and the plasma sample, respectively, at 1:1, and each sample was measured using LC/MS/MS. The measured area ratio (tissue/plasma) obtained was used as a tissue Kp value. For compound I-12, the value was 6.10 in the liver and 1.29 in muscles, and for compound I-13, the value was 4.06 in the liver and 0.918 in muscles. Therefore, the compound of the present invention has a property of being distributed in the liver and muscles in vivo.

Crl:CD (SD) rats = experiment: Influence on platelet count; format: in vivo; conditions: for Platelet count: oral, 4 days, SD rats; for platelet count in SD rats (in words): within a dose range used for evaluation (50 to 600 mg/kg/day)
Experimental: The compound of the present invention was suspended in a 0.5% methylcellulose solution so as to have a dose of 50 to 600 mg/kg/day, and was orally repeatedly administered for 4 days to 6-week-old male Crl:CD (SD) rats under non-fasted conditions. On day 5 from the start of administration, blood was collected from the abdominal vena cava under anesthesia, and […]. A platelet count in plasma was evaluated with an automatic hemocytometer.

recombinant human ACC2 = recombinant human ACC2 (Homo sapiens (Human), UniProt O00763); experiment: Measurement of inhibitory activity of human ACC2; format: biochemical; conditions: read-out: IC50 hACC2
Text: A cDNA encoding human ACC2 protein (27 amino acid residues to 2458 amino acid residues from the N-terminus) was cloned from a human kidney cDNA library (Clontech Laboratories, Inc.), a His-tag sequence was introduced at the 5′ end, and then inserted into pFastBac1 (Invitrogen). A recombinant baculovirus was produced in accordance with the protocol for a Bac-to-Bac baculovirus expression system (Invitrogen), and Sf-9 cells were infected therewith to express human ACC2 protein. The recovered cells were crushed, filtered through a filter, and then subjected to Ni affinity chromatography and anion exchange chromatography. Fractions containing human ACC2 protein were collected to obtain recombinant human ACC2.
The recombinant human ACC1 and the recombinant human ACC2 obtained from the above Preparation Examples were preincubated in an assay buffer (50 mM HEPES-KOH (pH 7.4), 10 mM magnesium chloride, 6 to 10 mM potassium citrate, 4 mM reduced glutathione, and 1.5 mg/ml bovine serum albumin) for 1 hour. […] After incubation, the enzymatic reaction was stopped by addition of EDTA, and then the compound was co-crystallized with an α-cyano-4-hydroxy cinnamic acid (CHCA) matrix on a MALDI target plate, and measurement was performed in a reflector negative mode using a matrix-assisted laser desorption ionization-time-of-flight mass spectrometer (MALDI-TOF MS). Deprotonated ions of the substrate acetyl-CoA (AcCoA) and the reaction product malonyl-CoA (MalCoA) were detected, and the intensity of each signal was used to calculate a conversion rate to malonyl-CoA […], i.e., intensity of [MalCoA-H]-/(intensity of [MalCoA-H]-+intensity of [AcCoA-H]-). […] The potassium citrate concentration in the assay buffer, the potassium bicarbonate concentration in the substrate solution, and the incubation time were adjusted within the above concentrations or reaction times for each lot of the enzyme to be used.

[3] = test system: mice fed an ultra-high fat, choline-deficient, methionine-lowered diet; experiment: Effect on liver fibrosis progression in mice fed ultra-high fat, choline-deficient, methionine-lowered diet; format: in vivo, C57BL/6JJcl mice; set-up: 3-hydroxybutyric acid in plasma: unit not given here; conditions: for Amount of triglyceride in liver / Sirius red-positive area rate / 3-hydroxybutyric acid in plasma / Plasma triglyceride concentration: bid; for Amount of triglyceride in liver / Sirius red-positive area rate: oral, 8 weeks; for gene expression level in the liver, Fasn / gene expression level in the liver, Srebf1: vehicle = 1.00
Experimental: Six-week-old male C57BL/6JJcl mice were fed an ultra-high fat, choline-deficient, methionine-lowered diet (60 kcal % fat content, using lard, choline-deficient, methionine-lowered (0.1%)), and at the same time, the compound of the present invention was suspended in a vehicle (0.5% methylcellulose aqueous solution) so as to have a dose of 3 to 45 mg/kg/10 mL, and orally repeatedly administered (b.i.d.) for 8 weeks. Blood was collected from the tail vein during the repeated administration period, and biochemical parameters in plasma were measured. After 8 weeks of administration, blood was collected from the abdominal vena cava under anesthesia, and then the liver was collected. Paraffin-embedded sections prepared from the collected liver were subjected to Sirius red staining. A degree of fibrosis progression in the liver was determined from a Sirius red-positive area rate and evaluated.

Sequence of recombinant human ACC2 (O00763 27-2458): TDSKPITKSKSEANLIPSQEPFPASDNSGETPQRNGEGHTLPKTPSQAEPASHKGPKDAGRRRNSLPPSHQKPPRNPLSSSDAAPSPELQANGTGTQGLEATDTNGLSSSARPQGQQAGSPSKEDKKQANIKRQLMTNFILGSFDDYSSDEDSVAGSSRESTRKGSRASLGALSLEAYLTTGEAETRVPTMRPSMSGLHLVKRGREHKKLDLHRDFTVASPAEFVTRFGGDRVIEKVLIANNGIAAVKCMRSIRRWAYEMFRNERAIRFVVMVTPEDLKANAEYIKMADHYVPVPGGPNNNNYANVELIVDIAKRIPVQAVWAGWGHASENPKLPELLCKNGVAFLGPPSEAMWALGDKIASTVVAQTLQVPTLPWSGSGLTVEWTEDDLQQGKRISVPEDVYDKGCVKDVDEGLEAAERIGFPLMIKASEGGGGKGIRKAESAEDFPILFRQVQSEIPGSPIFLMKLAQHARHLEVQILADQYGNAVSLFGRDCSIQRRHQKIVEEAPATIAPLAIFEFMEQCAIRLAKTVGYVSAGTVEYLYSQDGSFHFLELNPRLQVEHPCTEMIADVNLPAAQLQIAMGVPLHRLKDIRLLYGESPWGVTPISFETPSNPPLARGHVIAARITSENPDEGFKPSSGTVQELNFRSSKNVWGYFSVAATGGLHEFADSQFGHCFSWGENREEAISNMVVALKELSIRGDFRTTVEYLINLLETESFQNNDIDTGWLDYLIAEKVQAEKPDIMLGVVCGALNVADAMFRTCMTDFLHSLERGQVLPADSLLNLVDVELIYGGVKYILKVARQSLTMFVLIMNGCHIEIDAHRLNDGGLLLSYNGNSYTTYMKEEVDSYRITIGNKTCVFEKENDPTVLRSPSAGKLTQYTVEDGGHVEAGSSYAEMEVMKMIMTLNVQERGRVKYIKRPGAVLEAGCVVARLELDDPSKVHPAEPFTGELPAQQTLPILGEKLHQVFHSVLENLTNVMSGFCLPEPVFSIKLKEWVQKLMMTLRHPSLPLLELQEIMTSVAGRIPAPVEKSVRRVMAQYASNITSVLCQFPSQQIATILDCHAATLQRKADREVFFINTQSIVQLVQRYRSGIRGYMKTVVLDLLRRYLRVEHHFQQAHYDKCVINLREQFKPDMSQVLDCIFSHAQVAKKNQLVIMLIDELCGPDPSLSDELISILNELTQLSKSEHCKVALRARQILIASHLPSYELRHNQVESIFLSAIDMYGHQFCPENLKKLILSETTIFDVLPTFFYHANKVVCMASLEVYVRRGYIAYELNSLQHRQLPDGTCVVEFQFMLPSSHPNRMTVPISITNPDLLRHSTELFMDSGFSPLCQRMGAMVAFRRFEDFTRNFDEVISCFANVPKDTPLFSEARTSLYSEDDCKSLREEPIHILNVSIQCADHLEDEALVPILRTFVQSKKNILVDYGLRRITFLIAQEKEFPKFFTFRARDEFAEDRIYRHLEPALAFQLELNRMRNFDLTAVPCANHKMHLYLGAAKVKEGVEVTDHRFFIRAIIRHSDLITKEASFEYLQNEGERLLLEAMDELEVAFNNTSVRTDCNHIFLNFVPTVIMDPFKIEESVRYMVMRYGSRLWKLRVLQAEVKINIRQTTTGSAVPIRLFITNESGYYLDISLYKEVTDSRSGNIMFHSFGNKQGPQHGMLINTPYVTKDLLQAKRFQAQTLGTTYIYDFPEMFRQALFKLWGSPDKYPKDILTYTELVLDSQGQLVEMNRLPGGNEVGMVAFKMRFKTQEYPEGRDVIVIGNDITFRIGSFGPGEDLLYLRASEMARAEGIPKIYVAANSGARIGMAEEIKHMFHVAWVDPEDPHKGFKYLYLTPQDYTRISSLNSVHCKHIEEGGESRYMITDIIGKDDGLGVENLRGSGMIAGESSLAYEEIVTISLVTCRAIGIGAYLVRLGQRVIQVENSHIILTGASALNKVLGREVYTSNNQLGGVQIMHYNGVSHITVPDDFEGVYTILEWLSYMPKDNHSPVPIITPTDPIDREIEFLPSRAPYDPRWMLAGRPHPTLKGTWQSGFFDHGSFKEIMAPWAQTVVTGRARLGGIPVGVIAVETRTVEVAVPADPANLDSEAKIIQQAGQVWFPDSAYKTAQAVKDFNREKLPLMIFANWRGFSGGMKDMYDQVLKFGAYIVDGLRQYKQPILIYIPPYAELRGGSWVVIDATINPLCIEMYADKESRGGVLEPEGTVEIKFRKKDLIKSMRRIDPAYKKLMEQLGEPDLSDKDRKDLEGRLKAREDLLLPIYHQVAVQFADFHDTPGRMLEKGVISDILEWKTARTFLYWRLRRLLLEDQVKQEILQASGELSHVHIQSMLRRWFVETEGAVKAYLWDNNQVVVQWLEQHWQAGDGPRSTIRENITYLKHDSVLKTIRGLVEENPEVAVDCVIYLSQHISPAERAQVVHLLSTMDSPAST

C[C@@H](CO[C@H]1CC[C@H](Oc2nc3c(F)cc(OC4CC4)cc3n2C)CC1)NC(N)=O [Compound I-12]
Amount of compound remained, Human [1]: 83.3% | Amount of compound remained, Rat [2]: 85.5% | tissue Kp value (tissue/plasma), liver (Tissue distribution test): 6.10 | tissue Kp value (tissue/plasma), muscles (Tissue distribution test): 1.29 | Platelet count (Crl:CD (SD) rats; 100 mg/kg/day): 987 ± 86 | Platelet count (Crl:CD (SD) rats; 300 mg/kg/day): 988 ± 43 | Platelet count (Crl:CD (SD) rats; 600 mg/kg/day): 1061 ± 85 | platelet count in SD rats (in words) (Crl:CD (SD) rats): did not affect the platelet count | IC50 (recombinant human ACC2): 5.6 nM | Amount of triglyceride in liver ([3]; 3 mg/kg): 157 ± 7.3 mg/g tissue | Sirius red-positive area rate ([3]; 3 mg/kg): 3.47 ± 0.41% | 3-hydroxybutyric acid in plasma ([3]; 3 mg/kg, Week 2): 128 ± 23 | Plasma triglyceride concentration ([3]; 3 mg/kg, Week 2): 32.9 ± 1.3 mg/dL | 3-hydroxybutyric acid in plasma ([3]; 3 mg/kg, Week 4): 155 ± 31 | Plasma triglyceride concentration ([3]; 3 mg/kg, Week 4): 22.4 ± 2.1 mg/dL | 3-hydroxybutyric acid in plasma ([3]; 3 mg/kg, Week 7): 108 ± 31 | Plasma triglyceride concentration ([3]; 3 mg/kg, Week 7): 27.2 ± 1.5 mg/dL | Amount of triglyceride in liver ([3]; 10 mg/kg): 137 ± 7.2 mg/g tissue | Sirius red-positive area rate ([3]; 10 mg/kg): 4.46 ± 0.69% | 3-hydroxybutyric acid in plasma ([3]; 10 mg/kg, Week 2): 136 ± 23 | Plasma triglyceride concentration ([3]; 10 mg/kg, Week 2): 30.4 ± 2.2 mg/dL | 3-hydroxybutyric acid in plasma ([3]; 10 mg/kg, Week 4): 292 ± 27 | Plasma triglyceride concentration ([3]; 10 mg/kg, Week 4): 21.5 ± 1.8 mg/dL | 3-hydroxybutyric acid in plasma ([3]; 10 mg/kg, Week 7): 119 ± 34 | Plasma triglyceride concentration ([3]; 10 mg/kg, Week 7): 22.1 ± 1.9 mg/dL | Amount of triglyceride in liver ([3]; 30 mg/kg): 144 ± 7.5 mg/g tissue | Sirius red-positive area rate ([3]; 30 mg/kg): 2.29 ± 0.32 % | 3-hydroxybutyric acid in plasma ([3]; 30 mg/kg, Week 2): 189 ± 33 | Plasma triglyceride concentration ([3]; 30 mg/kg, Week 2): 23.1 ± 2.5 mg/dL | 3-hydroxybutyric acid in plasma ([3]; 30 mg/kg, Week 4): 292 ± 82 | Plasma triglyceride concentration ([3]; 30 mg/kg, Week 4): 11.1 ± 1.1 mg/dL | 3-hydroxybutyric acid in plasma ([3]; 30 mg/kg, Week 7): 187 ± 28 | Plasma triglyceride concentration ([3]; 30 mg/kg, Week 7): 16.2 ± 1.6 mg/dL | Sirius red-positive area rate vs vehicle administration group (in words) ([3]; dose of 30 mg/kg): significantly lower than that of the vehicle administration group | amount of triglyceride in the liver vs vehicle administration group (in words) ([3]; dose of 10 or 30 mg/kg): significantly lower than that of the vehicle administration group | concentration of 3-hydroxybutyric acid in plasma vs vehicle administration group (in words) ([3]; mouse, in vivo): higher than that in the vehicle administration group | plasma triglyceride concentration vs vehicle administration group (in words) ([3]; mouse, in vivo): lower than that in the vehicle administration group

CC(=O)N[C@@H](C)CC[C@H]1OC[C@H](Oc2nc3c(F)cc(OC4CC4)cc3n2C)CO1 [Compound I-13]
Amount of compound remained, Human [1]: 95.4% | Amount of compound remained, Rat [2]: 87% | tissue Kp value (tissue/plasma), liver (Tissue distribution test): 4.06 | tissue Kp value (tissue/plasma), muscles (Tissue distribution test): 0.918 | Platelet count (Crl:CD (SD) rats; 50 mg/kg/day): 1079 ± 73 | Platelet count (Crl:CD (SD) rats; 100 mg/kg/day): 1048 ± 65 | Platelet count (Crl:CD (SD) rats; 200 mg/kg/day): 1122 ± 87 | platelet count in SD rats (in words) (Crl:CD (SD) rats): did not affect the platelet count | IC50 (recombinant human ACC2): 6.6 nM | Amount of triglyceride in liver ([3]; 15 mg/kg): 179 ± 6.8 mg/g tissue | Sirius red-positive area rate ([3]; 15 mg/kg): 1.33 ± 0.20% | 3-hydroxybutyric acid in plasma ([3]; 15 mg/kg, Week 0): 298 ± 27 | Plasma triglyceride concentration ([3]; 15 mg/kg, Week 0): 61.6 ± 3.1 mg/dL | 3-hydroxybutyric acid in plasma ([3]; 15 mg/kg, Week 1): 396 ± 30 | Plasma triglyceride concentration ([3]; 15 mg/kg, Week 1): 23.7 ± 1.0 mg/dL | 3-hydroxybutyric acid in plasma ([3]; 15 mg/kg, Week 3): 797 ± 48 | Plasma triglyceride concentration ([3]; 15 mg/kg, Week 3): 19.8 ± 1.2 mg/dL | 3-hydroxybutyric acid in plasma ([3]; 15 mg/kg, Week 5): 616 ± 37 | Plasma triglyceride concentration ([3]; 15 mg/kg, Week 5): 19.0 ± 1.7 mg/dL | 3-hydroxybutyric acid in plasma ([3]; 15 mg/kg, Week 7): 501 ± 28 | Plasma triglyceride concentration ([3]; 15 mg/kg, Week 7): 18.8 ± 1.2 mg/dL | gene expression level in the liver, Fasn ([3]; 15 mg/kg): 0.82 ± 0.20 | gene expression level in the liver, Srebf1 ([3]; 15 mg/kg): 0.70 ± 0.19 | Amount of triglyceride in liver ([3]; 45 mg/kg): 155 ± 7.1 mg/g tissue | Sirius red-positive area rate ([3]; 45 mg/kg): 1.06 ± 0.10 % | 3-hydroxybutyric acid in plasma ([3]; 45 mg/kg, Week 0): 369 ± 28 | Plasma triglyceride concentration ([3]; 45 mg/kg, Week 0): 63.6 ± 3.7 mg/dL | 3-hydroxybutyric acid in plasma ([3]; 45 mg/kg, Week 1): 378 ± 28 | Plasma triglyceride concentration ([3]; 45 mg/kg, Week 1): 22.4 ± 2.5 mg/dL | 3-hydroxybutyric acid in plasma ([3]; 45 mg/kg, Week 3): 688 ± 72 | Plasma triglyceride concentration ([3]; 45 mg/kg, Week 3): 18.9 ± 1.4 mg/dL | 3-hydroxybutyric acid in plasma ([3]; 45 mg/kg, Week 5): 564 ± 77 | Plasma triglyceride concentration ([3]; 45 mg/kg, Week 5): 16.5 ± 1.7 mg/dL | 3-hydroxybutyric acid in plasma ([3]; 45 mg/kg, Week 7): 462 ± 45 | Plasma triglyceride concentration ([3]; 45 mg/kg, Week 7): 15.1 ± 1.0 mg/dL | gene expression level in the liver, Fasn ([3]; 45 mg/kg): 0.59 ± 0.09 | gene expression level in the liver, Srebf1 ([3]; 45 mg/kg): 0.34 ± 0.05 | Sirius red-positive area rate vs vehicle administration group (in words) ([3]; dose of 45 mg/kg): significantly lower than that of the vehicle administration group | amount of triglyceride in the liver vs vehicle administration group (in words) ([3]; dose of 45 mg/kg): significantly lower than that of the vehicle administration group | Srebf1 and Fas in the liver (in words) ([3]; mouse, in vivo): no increase in Srebf1 and Fas in the liver was observed | concentration of 3-hydroxybutyric acid in plasma vs vehicle administration group (in words) ([3]; mouse, in vivo): higher than that in the vehicle administration group | plasma triglyceride concentration vs vehicle administration group (in words) ([3]; mouse, in vivo): lower than that in the vehicle administration group
